Data reported in patent US10202584B2, “Red-shifted luciferase-luciferin pairs for enhanced bioluminescence” (The Regents of the University of California, priority 2016, dated 2019).
Like-named read-outs stand apart in the source and are kept apart here.

Legend:
[1] = tested on: luciferase-expressing HEK 293T cells; experiment: Bioluminescence imaging of intact luciferase-expressing HEK 293T cells; assay type: cell-based, Human; conditions: FLuc-expressing HEK 293T cells, millimolar substrate
Excerpt: Images were acquired without a filter (1c) or with a 695±25 nm NIR emission filter (1e). Panels 2d and 2f are quantification results for Panels 2c and 2e, respectively. […] Data are shown as mean and s.d. of three independent experiments.
Data are shown as mean and s.d. of three independent experiments.
HEK 293T (purchased from ATCC and tested for mycoplasma by PCR), which is one of the most widely used and readily transfectable cell lines, was used for all tissue culture transfections. HEK 293T cells were cultured at 37° C. with 5% CO2 in Dulbecco's Modified Eagle's Medium (DMEM) supplemented with 10% fetal bovine serum (FBS). Transfection mixtures were prepared with 3 μg of plasmid DNA and 9 μg of PEI (polyethylenimine, linear, MW 25 kDa) in DMEM and incubated for 20 min at room temperature. The medium was first aspirated, and subsequently, the transfection mixtures were added to cells at 70% confluency on 35-mm culture dishes seeded one day prior to transfection. […]
The number and density of cells in DPBS suspension were determined using a hemocytometer. […] To use the luminescence dark box to directly image cells, we added luciferase-expressing HEK293T cells (2000 cells per well with ˜70% transfection efficiency) and the corresponding luciferin substrates into wells of a white-wall, 96-well plate. […] All images were analyzed using the Fiji image analysis software [1].

HEK 293T cells [2] = experiment: Evaluation of the cytotoxicity of luciferins
Procedure: (§1) FIG. 15 is a panel showing the evaluation of the cytotoxicity of various luciferins. (15a) Viability of HEK 293T cells determined using RealTime-Glo™ MT Cell Viability Assay (Promega) after incubation with individual luciferin substrates for 24 h at 37° C. (15b) Evaluation of cell morphology and staining of dead cells. Cells incubated with the indicated luciferins for 24 h at 37° C. were stained with propidium iodide (PI), a fluorescent dye for dead cells.
(§2) Cell viability was determined using RealTime-Glo™ MT Cell Viability Assay (Promega) after incubation of HEK 293T cells with individual luciferin substrates for 24 h at 37° C. Cell morphology was further evaluated using microscopy. Briefly, HEK 293T cells in 35-mm culture dishes were washed twice with 400 μL DPBS pre-warmed to 37° C., and further incubated in 500 μL DPBS containing 20 μg/mL propidium iodide (PI), a fluorescent stain for dead cells, at room temperature for 15 min under light-shielded conditions. Cells were further rinsed with pre-warmed 300 μL DPBS three times to remove residual PI. Cells in 300 μL DPBS were next analyzed on a Motic AE31 microscope equipped with a 100 W Short-Arc Mercury lamp, a 540/25 nm excitation filter, a 565 nm longpass dichroic mirror, and a 605/55 nm emission filter.

[3] = target: ReNL (NanoLuc fused to fluorescent protein) (Oplophorus gracilirostris, UniProt Q9GV45); experiment: Apparent Michaelis constant and kcat, ReNL, bioluminescence; assay type: biochemical; conditions: assay buffer pH 6.0, mean ± s.d., n = 3
Sequence of ReNL (NanoLuc fused to fluorescent protein) (Q9GV45 28-196): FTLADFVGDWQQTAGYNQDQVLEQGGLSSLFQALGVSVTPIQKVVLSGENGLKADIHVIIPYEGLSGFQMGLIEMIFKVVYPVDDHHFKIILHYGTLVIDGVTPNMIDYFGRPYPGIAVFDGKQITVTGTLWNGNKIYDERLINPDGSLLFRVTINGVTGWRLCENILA
Excerpt: (§3) The final concentrations of all enzymes were 100 pM.
(§4) Signals were integrated until the substrates were completely consumed.

[4] = target: NanoLuc luciferase (Oplophorus gracihrostris-derived, parent, SEQ ID NO: 1) (Oplophorus gracilirostris, UniProt Q9GV45, A31E/A60N/A81I/F95D/I117V/K70R/L54V/L99Q/M102K/N193R/P142E/Q151K/Q38R/Q45L/V71I/Y165I); experiment: Apparent Michaelis constant and kcat, purified NanoLuc, bioluminescence; conditions: kcat=Imax/(QY*[E]); assay buffer pH 6.0; mean ± s.d., n = 3
Sequence of NanoLuc luciferase (Oplophorus gracihrostris-derived, parent, SEQ ID NO: 1) (Q9GV45 28-196 A31E/Q38R/Q45L/L54V/A60N/K70R/V71I/A81I/F95D/L99Q/M102K/I117V/P142E/Q151K/Y165I/N193R, looked up): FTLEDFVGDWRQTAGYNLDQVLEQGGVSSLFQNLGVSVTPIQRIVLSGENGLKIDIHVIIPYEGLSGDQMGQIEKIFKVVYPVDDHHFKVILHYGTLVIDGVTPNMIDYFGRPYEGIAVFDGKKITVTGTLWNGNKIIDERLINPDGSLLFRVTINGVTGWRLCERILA
Excerpt: as §3, §4

[5] = target: Antares (NanoLuc fused to CyOFP1) (Oplophorus gracilirostris, UniProt Q9GV45); experiment: Apparent Michaelis constant and kcat, Antares, bioluminescence; assay type: biochemical; conditions: assay buffer pH 6.0, mean ± s.d., n = 3
Sequence of Antares (NanoLuc fused to CyOFP1) (Q9GV45 28-196): as the sequence (Q9GV45 28-196) above
Excerpt: as §3
(9a) Primary structural arrangement of Antares and Antares2.
as §4

purified luciferases = experiment: In vitro bioluminescence intensity with purified recombinant proteins; assay type: biochemical; conditions: assayed with NanoLuc
Excerpt: as §4

BALB/c mice = experiment: Bioluminescence imaging in deep tissues of live mice (hydrodynamic transfection); assay type: in vivo
Excerpt: FIG. 2 is a panel showing bioluminescence imaging of luciferase-luciferin pairs at superficial sites and in deep tissues of live mice. […] The group numbers in panel 2b are aligned with those in panel 2a. Two injection sites (one for luciferase-expressing cells and one for empty vehicle controls) for each mouse are illustrated with red arrows. […] Data are shown as mean and s.d. (n=3). […] Data are shown as mean and s.d. (n=4 for teLuc, Antares, and Antares2 with 3.3 μmol substrates, and n=3 for all other groups).
FIG. 16 is a graph of bioluminescence kinetics of IP injected luciferins (3.3 μmol each) in hydrodynamically transfected mice.
Hydrodynamic transfections were performed on BALB/c mice as described elsewhere. Briefly, 20 μg of each luciferase-expressing plasmid in sterilized saline (volume equivalent to 9% bodyweight of the treated mouse) was injected into restrained mice via the tail vein over 4-8 sec. Mice were allowed to recover on heat pads and were monitored until their breathing rate returned to normal. […] To inject 3.3 μmol DTZ or furimazine, the total volumes were increased to 500 μL. […] The Fiji image analysis software was used to process images and derive integrated intensities.

HEK 293T cells [6] = experiment: Cytotoxicity of luciferins (RealTime-Glo MT Cell Viability Assay; propidium iodide staining); assay type: cell-based; conditions: 24 h at 37° C., millimolar concentrations
Procedure: as §1, §2

Rluc8 = Rluc8 (Renilla reniformis, UniProt P27652, A143M/A55T/C124A/K136R/M185V/M253L/S130A/S287L); conditions: RLuc mutant Rluc8; cited from earlier work
Sequence of Rluc8 (P27652 whole entry A55T/C124A/S130A/K136R/A143M/M185V/M253L/S287L): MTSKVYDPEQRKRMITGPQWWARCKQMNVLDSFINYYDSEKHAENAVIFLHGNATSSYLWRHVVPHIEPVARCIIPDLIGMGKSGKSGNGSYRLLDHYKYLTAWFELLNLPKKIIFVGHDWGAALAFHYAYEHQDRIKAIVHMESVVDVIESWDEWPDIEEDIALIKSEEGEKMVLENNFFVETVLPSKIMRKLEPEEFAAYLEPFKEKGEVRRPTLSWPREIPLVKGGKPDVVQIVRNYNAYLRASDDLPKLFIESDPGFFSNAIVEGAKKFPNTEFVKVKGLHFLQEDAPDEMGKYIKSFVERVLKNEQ

NanoLuc = NanoLuc (Oplophorus gracilirostris, UniProt Q9GV45, A31E/A60N/A81I/F95D/I117V/K70R/L54V/L99Q/M102K/N193R/P142E/Q151K/Q38R/Q45L/V71I/Y165I); conditions: cited from earlier work
Sequence of NanoLuc (Q9GV45 28-196 with tags or gaps with the stated changes limits assumed): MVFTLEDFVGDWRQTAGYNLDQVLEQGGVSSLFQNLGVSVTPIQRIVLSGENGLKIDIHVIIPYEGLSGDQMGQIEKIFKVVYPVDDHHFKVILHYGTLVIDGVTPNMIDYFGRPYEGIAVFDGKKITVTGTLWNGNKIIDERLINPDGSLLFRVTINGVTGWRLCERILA

[7] = apparent, 100 pM enzyme, substrate 0.78 to 50 μM

AkaLumine-HCl
bioluminescence intensity with FLuc compared with teLuc or Antares2 with micromolar DTZ [1]: 1-2 orders of magnitude lower
cell toxicity (HEK 293T cells [2]): induced cell death
cytotoxicity by propidium iodide staining of dead cells (HEK 293T cells [2]; HEK 293T cells, 24 h at 37° C.): further confirmed by the red fluorescence of PI

O=c1c(Cc2ccco2)nc2c(Cc3ccccc3)[nH]c(-c3ccccc3)cn1-2 [furimazine]
cell toxicity (HEK 293T cells [2]): induced cell death
cytotoxicity by propidium iodide staining of dead cells (HEK 293T cells [2]; HEK 293T cells, 24 h at 37° C.): further confirmed by the red fluorescence of PI
Km [3, 7]: 14.5 ± 1.3 µM
kcat ([3]; kcat=Imax/(QY*[E])): 104 ± 4 s⁻¹
kcat [4]: 88.2 ± 1.7 s⁻¹
Km [5, 7]: 11.1 ± 0.5 µM
kcat ([5]; kcat=Imax/(QY*[E])): 112 ± 2 s⁻¹

O=c1c(Cc2ccccc2)nc2c([Se]c3ccccc3)[nH]c(-c3ccccc3)cn1-2 [STZ, 2-benzyl-6-phenyl-8-(phenylselanyl)imidazo[1,2-a]pyrazin-3(7H)-one]
cell toxicity (HEK 293T cells [2]): induced cell death
cytotoxicity by propidium iodide staining of dead cells (HEK 293T cells [2]): further confirmed by the red fluorescence of PI
brightness relative to furimazine (purified luciferases): reduced brightness

O=c1c(Cc2ccccc2)nc2c(-c3ccccc3)[nH]c(-c3ccccc3)cn1-2 [DTZ, diphenylterazine]
cell toxicity (HEK 293T cells [2]; HEK 293T cells, 24 h at 37° C., RealTime-Glo MT Cell Viability Assay): minimal cell toxicity at millimolar concentrations
brightness relative to furimazine (purified luciferases): reduced brightness
bioluminescence kinetics after intraperitoneal injection (BALB/c mice; 3.3 μmol, hydrodynamically transfected mice): extended kinetics
background emission in untransfected BALB/c mice (BALB/c mice; DTZ injection): did not yield any background emission

O=c1c(Cc2ccccc2)nc2c(-c3ccccc3)[nH]c(-c3ccccc3)cn1-2 [DTZ]
cell toxicity (HEK 293T cells [6]): minimal cell toxicity

O=C(O)[C@H]1CSC(c2nc3ccc(O)cc3s2)=N1 [D-luciferin]
bioluminescence intensity with FLuc compared with teLuc or Antares2 with micromolar DTZ [1]: 1-2 orders of magnitude lower

6-pi-OH-CTZ
red-shift of Rluc8 bioluminescence (Rluc8): 47 nm
bioluminescence with NanoLuc (NanoLuc): hardly any bioluminescence
